Experimental data taken from ChEMBL document CHEMBL1201862, “PubChem BioAssay data set” (2004).
Calls of active or inactive are those of the source.

Assays:
Streptococcus = assay: Luminescence Microorganism-Based Dose Response Follow up to Identify Compounds Cytotoxic to Streptococcus. [Related pubchem assays: 1677 (Project Summary), 1915, 1914, 1902 (Retest at Dose), 1900 (Counter Screen), 1662 (Primary HTS)]; type: functional, organism-based
[1] = target: T1, High affinity choline transporter 1 (Homo sapiens, UniProt Q9GZV3); assay: CHT inhibitors, dose response, cell-based, 5-point CRC, membrane potential dye (AID 504840); type: functional
T1 sequence (Q9GZV3 whole entry): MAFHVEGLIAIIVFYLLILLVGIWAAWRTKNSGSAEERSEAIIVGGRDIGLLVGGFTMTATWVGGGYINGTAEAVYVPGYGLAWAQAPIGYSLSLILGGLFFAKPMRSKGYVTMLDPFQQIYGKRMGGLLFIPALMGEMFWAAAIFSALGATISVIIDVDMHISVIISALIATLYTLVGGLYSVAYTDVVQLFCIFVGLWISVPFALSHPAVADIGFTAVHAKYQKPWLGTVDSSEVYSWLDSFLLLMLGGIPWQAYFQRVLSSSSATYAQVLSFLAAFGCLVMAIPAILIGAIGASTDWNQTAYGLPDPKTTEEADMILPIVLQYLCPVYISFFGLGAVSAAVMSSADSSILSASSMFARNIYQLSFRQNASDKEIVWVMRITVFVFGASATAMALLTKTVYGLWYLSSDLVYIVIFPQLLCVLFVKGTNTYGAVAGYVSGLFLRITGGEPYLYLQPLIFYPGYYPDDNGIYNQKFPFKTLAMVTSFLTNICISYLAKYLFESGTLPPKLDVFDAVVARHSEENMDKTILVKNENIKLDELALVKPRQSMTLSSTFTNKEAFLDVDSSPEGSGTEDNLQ

[2] = Counterscreen for IDE inhibitors: Luminescence-based cell-based high throughput dose response assay to identify compounds that are cytotoxic to HEK cells. [Related pubchem assays: 434962 (Primary screen (IDE inhibitors in singlicate)), 449730 (Counterscreen (Cytotoxicity in triplicate)), 435028 (Confirmation (IDE inhibitors in triplicate)) …; type: functional; conditions: HEK293
Insulin-degrading enzyme = target: T2, Insulin-degrading enzyme (Homo sapiens, UniProt P14735); assay: Dose Response: Fluorescence polarization-based cell-based high throughput dose response assay for inhibitors of insulin-degrading enzyme (IDE). [Related pubchem assays: 434962 (Primary screen (IDE inhibitors in singlicate)), 449730 (Counterscreen (Cytotoxicity in triplicate)), 435028 (Confirmation (IDE inhibitors in triplicate)), 434984 (Summary …; type: functional
T2 sequence (P14735 whole entry): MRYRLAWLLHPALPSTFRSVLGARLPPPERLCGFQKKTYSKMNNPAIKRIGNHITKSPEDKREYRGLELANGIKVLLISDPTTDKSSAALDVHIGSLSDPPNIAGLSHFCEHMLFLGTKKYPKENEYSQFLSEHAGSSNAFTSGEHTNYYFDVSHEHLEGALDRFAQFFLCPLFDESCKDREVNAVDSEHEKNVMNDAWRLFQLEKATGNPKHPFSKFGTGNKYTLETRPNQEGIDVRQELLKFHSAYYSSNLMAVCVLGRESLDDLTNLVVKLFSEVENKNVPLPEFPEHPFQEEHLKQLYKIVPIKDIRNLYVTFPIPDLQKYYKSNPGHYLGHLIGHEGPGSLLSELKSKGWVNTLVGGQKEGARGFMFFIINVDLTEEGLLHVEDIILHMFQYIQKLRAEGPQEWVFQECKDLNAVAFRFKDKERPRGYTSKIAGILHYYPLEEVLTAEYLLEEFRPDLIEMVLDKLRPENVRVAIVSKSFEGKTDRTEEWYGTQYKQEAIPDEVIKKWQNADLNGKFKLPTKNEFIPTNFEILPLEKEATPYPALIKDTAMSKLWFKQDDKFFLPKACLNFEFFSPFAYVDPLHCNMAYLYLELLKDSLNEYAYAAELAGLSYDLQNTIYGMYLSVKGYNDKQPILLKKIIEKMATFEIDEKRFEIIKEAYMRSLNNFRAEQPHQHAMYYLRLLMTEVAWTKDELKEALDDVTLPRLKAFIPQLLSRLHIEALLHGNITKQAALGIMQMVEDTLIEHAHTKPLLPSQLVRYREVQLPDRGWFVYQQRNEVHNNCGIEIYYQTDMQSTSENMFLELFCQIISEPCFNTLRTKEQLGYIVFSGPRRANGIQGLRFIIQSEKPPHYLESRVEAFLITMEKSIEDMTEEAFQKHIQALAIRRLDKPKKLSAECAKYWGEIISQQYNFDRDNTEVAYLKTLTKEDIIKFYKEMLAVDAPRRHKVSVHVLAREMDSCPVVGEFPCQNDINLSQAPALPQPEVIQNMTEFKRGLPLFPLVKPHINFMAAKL

[3] = target: T1, High affinity choline transporter 1; assay: CHT inhibitors, dose response, cell-based, 10-point CRC, membrane potential dye (AID 588401); type: functional;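 note: membrane potential dye fluorescence of choline-evoked depolarization via CHT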
[4] = Luminescence-based counterscreen assay for KLF5 inhibitors: dose response cell-based high throughput screening assay to identify cytotoxic compounds using the IEC-6 intestinal epithelial cell line. [Related pubchem assays: 1700 (Primary screen.), 1834 (Confirmation screen.), 1858 (Summary AID.), 1905 (Counterscreen.)]; type: functional
[5] = HepG2 cell cytotoxicity, dose response, cytotoxicity control, plate reader, cherry-pick, antagonist series (AID 743416); type: functional, cell-based
[6] = Luminescence Cell-Based Dose Response HTS to Identify Inhibitors of 5'UTR Stem-Loop Driven Prion Protein mRNA Translation in H4 Neuroglioblastoma Cells. [Related pubchem assays: 1827 (Project Summary), 1813 (Primary HTS)]; type: functional
[7] = target: Luciferin 4-monooxygenase (Photinus pyralis, UniProt P08659); assay: firefly luciferase enzyme inhibitors, dose response, biochemical, luminescence (AID 1891)
Sequence of Luciferin 4-monooxygenase (P08659 whole entry): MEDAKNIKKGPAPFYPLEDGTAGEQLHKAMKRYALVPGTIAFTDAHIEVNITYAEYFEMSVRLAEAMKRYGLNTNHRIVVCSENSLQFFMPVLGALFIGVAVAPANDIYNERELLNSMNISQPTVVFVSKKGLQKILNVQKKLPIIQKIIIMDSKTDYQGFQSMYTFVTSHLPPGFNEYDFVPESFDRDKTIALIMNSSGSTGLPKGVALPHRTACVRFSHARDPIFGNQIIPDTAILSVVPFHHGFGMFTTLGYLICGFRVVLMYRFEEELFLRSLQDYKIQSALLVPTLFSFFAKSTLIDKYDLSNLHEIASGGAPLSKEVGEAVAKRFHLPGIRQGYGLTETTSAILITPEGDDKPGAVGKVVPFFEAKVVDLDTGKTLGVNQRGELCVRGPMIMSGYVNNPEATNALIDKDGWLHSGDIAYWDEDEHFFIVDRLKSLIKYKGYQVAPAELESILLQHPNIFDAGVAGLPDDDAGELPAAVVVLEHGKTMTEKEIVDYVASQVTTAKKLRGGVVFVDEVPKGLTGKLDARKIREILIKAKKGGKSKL

[8] = inhibitors of firefly luciferase expression or activity, dose response, H4 neuroglioma cells, luminescence (AID 1990); type: functional, cell-based
[9] = A549 cell cytotoxicity, dose response, cytotoxicity control, plate reader, cherry-pick, antagonist series (AID 743412); type: functional, cell-based
[10] = inhibitors of SNCA 5'UTR-driven reporter translation, confirmation, H4 neuroglioma cells, luminescence (AID 1988); type: functional, cell-based
[11] = HEK293 cell cytotoxicity, dose response, cytotoxicity control, plate reader, cherry-picked samples (AID 743446); type: functional, cell-based
[12] = LGR2 antagonists, dose response, cell-based, HEK293, CRE-luciferase reporter, cherry pick, set 2 (AID 743343); type: functional;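 note: transfected cells were stimulated with diluted bursicon conditioned medium after compound addition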
[13] = Luminescence Cell-Based Dose Confirmation HTS to Identify Inhibitors of Platelet Dense Granule Release. [Related pubchem assays: 1663 (Primary HTS), 1678 (Summary of Project)]; type: functional
[14] = MC4R antagonists, dose response, counter-screen for LGR2 antagonist project, cell-based, plate reader, cherry pick (AID 743444); type: functional;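 note: transfected HEK 293 cells stimulated with alpha-MSH peptide; potency of inhibitors of the alpha-MSH evoked signal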
[15] = HEp-2 cell cytotoxicity, dose response, cytotoxicity control for RSV inhibitor project, HTS (AID 2410); type: functional; conditions: human respiratory syncytial virus
[16] = target: Melanin-concentrating hormone receptor 1 (Homo sapiens, UniProt Q99705); assay: Fluorescence-based counterscreen for antagonists of the G-protein coupled receptor 7 (GPR7): cell-based high throughput dose response assay to identify antagonists of the melanin-concentrating hormone receptor 1 (MCHR1).; type: functional
Sequence of Melanin-concentrating hormone receptor 1 (Q99705 whole entry): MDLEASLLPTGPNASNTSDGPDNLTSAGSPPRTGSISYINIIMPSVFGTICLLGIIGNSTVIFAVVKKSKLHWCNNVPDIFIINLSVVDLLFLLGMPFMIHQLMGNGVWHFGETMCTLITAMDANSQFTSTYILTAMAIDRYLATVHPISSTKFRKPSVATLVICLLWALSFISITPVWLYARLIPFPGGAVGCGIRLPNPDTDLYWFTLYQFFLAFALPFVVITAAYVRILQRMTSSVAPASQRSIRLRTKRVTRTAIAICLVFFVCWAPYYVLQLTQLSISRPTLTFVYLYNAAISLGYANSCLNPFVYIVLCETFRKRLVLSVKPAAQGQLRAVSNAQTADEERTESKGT

[17] = target: T3, Neuropeptides B/W receptor type 1 (Homo sapiens, UniProt P48145); assay: Fluorescence-based dose response cell-based high throughput screening assay to identify antagonists of the G-protein coupled receptor 7 (GPR7). [Related pubchem assays: 1952 (Screening assay (GPR7 antagonists).), 1880 (Summary AID.)]; type: functional
T3 sequence (P48145 whole entry): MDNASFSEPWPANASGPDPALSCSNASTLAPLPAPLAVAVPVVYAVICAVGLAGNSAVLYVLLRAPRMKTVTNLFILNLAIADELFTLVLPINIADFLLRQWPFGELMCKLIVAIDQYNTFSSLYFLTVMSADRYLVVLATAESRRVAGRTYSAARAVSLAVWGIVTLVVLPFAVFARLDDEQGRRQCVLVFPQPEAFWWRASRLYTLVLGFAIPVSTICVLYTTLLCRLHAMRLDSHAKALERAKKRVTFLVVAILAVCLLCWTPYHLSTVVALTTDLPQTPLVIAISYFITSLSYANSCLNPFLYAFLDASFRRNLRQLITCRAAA

[18] = target: T4, Corticotropin-releasing factor receptor 2/Corticotropin-releasing factor-binding protein (Homo sapiens, UniProt P24387+Q13324); assay: activators of CRF receptor 2 with binding protein – uHTS hits, confirmation (AID 602473); type: functional; conditions: read-out: EC50_Mean
T4 sequence (Q13324 whole entry): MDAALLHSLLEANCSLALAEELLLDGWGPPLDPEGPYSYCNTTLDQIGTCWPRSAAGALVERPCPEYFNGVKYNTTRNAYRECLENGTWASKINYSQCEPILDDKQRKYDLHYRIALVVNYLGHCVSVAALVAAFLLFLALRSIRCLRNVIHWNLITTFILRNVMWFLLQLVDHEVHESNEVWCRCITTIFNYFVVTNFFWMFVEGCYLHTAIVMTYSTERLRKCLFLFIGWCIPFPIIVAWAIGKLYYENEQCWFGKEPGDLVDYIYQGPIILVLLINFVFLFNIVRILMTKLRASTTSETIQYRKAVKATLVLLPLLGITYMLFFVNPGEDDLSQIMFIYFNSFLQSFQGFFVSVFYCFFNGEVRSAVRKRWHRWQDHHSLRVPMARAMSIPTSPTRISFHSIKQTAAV
T4 sequence (P24387 whole entry): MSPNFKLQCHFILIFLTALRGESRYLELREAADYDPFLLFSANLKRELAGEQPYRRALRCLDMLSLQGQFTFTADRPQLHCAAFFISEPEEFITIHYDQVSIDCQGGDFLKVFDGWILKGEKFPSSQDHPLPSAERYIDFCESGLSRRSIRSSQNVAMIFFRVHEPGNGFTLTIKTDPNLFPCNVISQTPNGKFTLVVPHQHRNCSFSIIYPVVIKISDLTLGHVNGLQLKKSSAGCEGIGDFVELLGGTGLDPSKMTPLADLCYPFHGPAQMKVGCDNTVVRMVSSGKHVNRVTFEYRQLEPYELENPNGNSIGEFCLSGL

SMILES: N#Cc1ccc(C(=O)n2c3ccccc3c3ccccc32)cc1
- EC50 (Streptococcus): > 500 µM (not active)

SMILES: CC(C)(C)NC(=O)NC(=O)CN1CCN(c2cccc(Cl)c2)CC1
- IC50 [1]: 8.64 µM (active)
- IC50 [2]: 19.3 µM (not active)
- IC50 (Insulin-degrading enzyme): > 55.9 µM (not active)
- IC50 [3]: 3.16 µM (active)

SMILES: CCc1ccn2cc(-c3ccc4c(c3)OCO4)nc2c1
- IC50 [4]: 21.5 µM (not active)
- AC50 [5]: > 52 µM (inactive)
- EC50 [6]: < 0.1 µM (active)
- EC50 [7]: 2.16 µM (active)
- EC50 [8]: 0.239 µM (active)
- AC50 [9]: > 52 µM (inactive)
- EC50 [10]: 0.158 µM (active)
- AC50 [11]: > 52 µM (inactive)
- AC50 [12]: 1.22 µM (active)
- EC50 [13]: 8.85 µM (active)
- AC50 [14]: 1.5 µM (active)

SMILES: COc1ccc(-c2oc(=O)c3cc(OC)c(OC)cc3c2/C=C/c2cccc([N+](=O)[O-])c2)cc1
- CC50 [15]: 38 µM (active)
- IC50 (cells): 14.8 µM (active)

SMILES: N=c1c(C(=O)NCCc2ccccc2)cc2c(=O)n3ccccc3nc2n1CCCN1CCOCC1
- IC50 [16]: > 43.8 µM (not active)
- IC50 [17]: > 43.8 µM (not active)

SMILES: Cc1cccc(/N=C/c2[nH]c3ccc(Br)c(Cl)c3c2O)c1
- EC50 [18]: 0.46 µM (active)
- IC50 [2]: 13.1 µM (not active)
- IC50 (Insulin-degrading enzyme): 38.2 µM (not active)
